Measured values taken from patent publication US4450269A, “Mono-5-substituted-3-chloro-4H-1,2,6-thiadiazin-4-one antifungal agents” (FMC Corporation, priority 1980, dated 1984).

Key:
Alternaria solani = assay: Spore germination test; type: cell-based; conditions: AS, 48 hours
How it was run: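 Compound in acetone was mixed into water agar at final 40, 10, 2.5 and 1 ppm and poured into quadrant dishes. Quadrants received spore suspension, while Erysiphe polygoni and Uromyces phaseoli spores were brushed on from infected leaves. After 48 h at 24 °C, the percentage of germinated spores was converted to a germination rating.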

Fusarium solani = assay: Soil treatment, bean root rot; type: in vivo; conditions: Fusarium solani, soil, 336 h; 150 ppm suspension, 3.8 mg active per pot; read-out: Percent Disease Control, seed/soil, bean root rot
Procedure: In a similar manner the soil around a bean seedling was drenched with a sufficient amount of 150 ppm suspension of test chemical to provide 3.8 mg active per pot. Twenty-four hours later the soil was inoculated with a suspension of minced mycelium of Fusarium solani. The inoculated plants were then placed in a greenhouse, evaluated after fourteen days, and percent control of root rot damage calculated. The results, reported in Table III, indicate only a few of the compounds tested are effective in treating Bean Root Rot but that these provide a high degree of control.

Cercospora beticola = assay: whole plant or invertebrate; conditions: in Beta vulgaris, foliar, 24 h, read-out: Percent Disease Control, curative, sugar beet leaf spot

| SMILES | Spore Germination Rating (Alternaria solani; 1.0 ppm) | Spore Germination Rating (Alternaria solani; 2.5 ppm) | Spore Germination Rating (Alternaria solani; 10 ppm) | Spore Germination Rating (Alternaria solani; 40 ppm) | pest or weed control at 150 ppm, 3.8 mg/pot (Fusarium solani) [%] | pest or weed control at 150 ppm (Cercospora beticola) [%] |
| --- | --- | --- | --- | --- | --- | --- |
| CC(=O)Nc1ccc(Oc2nsnc(Cl)c2=O)cc1 [Compound 8, 5-(4-acetylaminophenoxy)-3-chloro-4H--1,2,6-thiadiazin-4-one] | 3 (60-80) | 2 (40-60) | 2 (40-60) | 0 (0-10) | 0 | 0 |
| Cc1ccc(Oc2nsnc(Cl)c2=O)c(Br)c1 [Compound 57, 3-[(2-bromo-4-methyl)-phenoxy]-5-chloro-4H--1,2,6-thiadiazin-4-one] | 4 (80-100) | 2 (40-60) | 0 (0-10) | 0 (0-10) | 0 | 90 |
| O=c1c(Cl)nsnc1Oc1c(Cl)c(Cl)c(Cl)c(Cl)c1Cl [Compound 31, 3-chloro-5-(pentachlorophenoxy)-4H--1,2,6-thiadiazine-4-one] | 4 (80-100) | 1 (10-40) | 0 (0-10) | 0 (0-10) | 0 | 0 |
| O=c1c(Cl)nsnc1Oc1ccc(Cl)cc1 [Compound 12, 3-chloro-5-(4-chlorophenoxy)-4H--1,2,6-thiadiazin-4-one] | 3 (60-80) | 1 (10-40) | 1 (10-40) | 0 (0-10) | 0 | 95 |
| O=c1c(Cl)nsnc1Oc1cccc(Cl)c1Cl [Compound 19, 3-chloro-5-(2,3-dichlorophenoxy)-4H--1,2,6-thiadiazin-4-one] | 3 (60-80) | 3 (60-80) | 0 (0-10) | 0 (0-10) | 0 | 0 |
| O=c1c(Cl)nsnc1Oc1c(Cl)cc(Cl)cc1Cl [Compound 30, 3-chloro-5-(2,4,6-trichlorophenoxy)-4H--1,2,6-thiadiazin-4-one] | 3 (60-80) | 0 (0-10) | 0 (0-10) | 0 (0-10) | 0 | 0 |
| CC(=O)Nc1ccccc1Oc1nsnc(Cl)c1=O [Compound 43, 3-[(2-acetylamino)-phenoxy]-5-chloro-4H--1,2,6-thiadiazin-4-one] | 4 (80-100) | 4 (80-100) | 4 (80-100) | 3 (60-80) | 0 | 90 |
| CNC(=O)Nc1ccc(Oc2nsnc(Cl)c2=O)cc1 [Compound 28, 3-chloro-5-[4-(3-methylureido)-phenoxy]-4H--1,2,6-thiadiazin-4-one] | 4 (80-100) | 4 (80-100) | 4 (80-100) | 4 (80-100) | 95 | 0 |
| CC(=O)c1ccccc1Oc1nsnc(Cl)c1=O [Compound 49, 3-(2-acetylphenoxy)-5-chloro-4H--1,2,6-thiadiazin-4-one] | 4 (80-100) | 3 (60-80) | 2 (40-60) | 0 (0-10) | 0 | 0 |
| O=C(O)Cc1ccccc1Oc1nsnc(Cl)c1=O [Compound 45, 3-(2-carboxymethylphenoxy)-5-chloro-4H--1,2,6-thiadiazin-4-one] | 4 (80-100) | 4 (80-100) | 4 (80-100) | 2 (40-60) | 90 | 90 |
| Cc1ccccc1Oc1nsnc(Cl)c1=O [Compound 22, 3-chloro-5-(2-methylphenoxy)-4H--1,2,6-thiadiazin-4-one] | 3 (60-80) | 0 (0-10) | 0 (0-10) | 0 (0-10) | 0 | 0 |
| O=C(Nc1ccccc1)Nc1ccc(Oc2nsnc(Cl)c2=O)cc1 [Compound 29, 3-chloro-5-[4-(3-phenylureido)-phenoxy]-4H--1,2,6-thiadiazin-4-one] | 4 (80-100) | 4 (80-100) | 4 (80-100) | 4 (80-100) | 0 | 95 |
| CCCCOc1ccc(Oc2nsnc(Cl)c2=O)cc1 [Compound 6, 3-chloro-5-(4-n-butoxyphenoxy)-4H--1,2,6-thiadiazin-4-one] | 4 (80-100) | 4 (80-100) | 4 (80-100) | 4 (80-100) | 0 | 0 |
| Cc1ccc(Oc2nsnc(Cl)c2=O)c(C)c1 [Compound 23, 3-chloro-5-(2,4-dimethylphenoxy)-4H--1,2,6-thiadiazin-4-one] | 3 (60-80) | 3 (60-80) | 0 (0-10) | 0 (0-10) | 0 | 100 |
| CC(=O)Nc1cccc(Oc2nsnc(Cl)c2=O)c1 [Compound 42, 3-[(3-N--acetylamino)-phenoxy]-5-chloro-4H--1,2,6-thiadiazin-4-one] | 4 (80-100) | 4 (80-100) | 4 (80-100) | 2 (40-60) | 90 | 0 |
| COc1ccc(Oc2nsnc(Cl)c2=O)cc1 [Compound 5, 3-chloro-5-(4-methoxyphenoxy)4H--1,2,6-thiadiazin-4-one] | 2 (40-60) | 0 (0-10) | 0 (0-10) | 0 (0-10) | 50 | 0 |
| O=c1c(Cl)nsnc1Oc1ccccc1Cl [Compound 14, 3-chloro-5-(2-chlorophenoxy)-4H--1,2,6-thiadiazin-4-one] | 3 (60-80) | 2 (40-60) | 0 (0-10) | 0 (0-10) | 90 | 0 |
| O=c1c(Cl)nsnc1Oc1ccccc1 [Compound 2, 3-chloro-5-phenoxy-4H--1,2,6-thiadiazin-4-one] | 4 (80-100) | 0 (0-10) | 0 (0-10) | 0 (0-10) | 100 | 0 |
| Cc1cccc(C)c1Oc1nsnc(Cl)c1=O [Compound 24, 3-chloro-5-(2,6-dimethylphenoxy)-4H--1,2,6-thiadiazin-4-one] | 1 (10-40) | 1 (10-40) | 0 (0-10) | 0 (0-10) | 0 | 50 |
| O=c1c(Cl)nsnc1Oc1ccc(Br)cc1 [Compound 15, 3-chloro-5-(4-bromophenoxy)-4H--1,2,6-thiadiazin-4-one] | 4 (80-100) | 1 (10-40) | 0 (0-10) | 0 (0-10) | 0 | 0 |
| O=c1c(Cl)nsnc1Oc1ccccc1Br [Compound 34, 3-chloro-5-(2-bromophenoxy)-4H-1,2,6,-thiadiazin-4-one] | 4 (80-100) | 1 (10-40) | 0 (0-10) | 0 (0-10) | 0 | 0 |
| Cc1cc(C)cc(Oc2nsnc(Cl)c2=O)c1 [Compound 25, 3-chloro-5-(3,5-dimethylphenoxy)-4H--1,2,6-thiadiazin-4-one] | 4 (80-100) | 2 (40-60) | 0 (0-10) | 0 (0-10) | 0 | 50 |
| CCOC(=O)c1ccc(Oc2nsnc(Cl)c2=O)cc1 [Compound 7, 3-chloro-5-(4-ethoxycarbonylphenoxy)-4H--1,2,6-thiadiazin-4-one] | 4 (80-100) | 4 (80-100) | 4 (80-100) | 4 (80-100) | 98 | 75 |
| Cc1cccc(Oc2nsnc(Cl)c2=O)c1 [Compound 21, 3-chloro-5-(3-methylphenoxy)-4H--1,2,6-thiadiazin-4-one] | 3 (60-80) | 1 (10-40) | 0 (0-10) | 0 (0-10) | 0 | 100 |
| O=c1c(Cl)nsnc1Oc1cc(Cl)cc(Cl)c1 [Compound 20, 3-chloro-5-(3,5-dichlorophenoxy)-4H--1,2,6-thiadiazin-4-one] | 2 (40-60) | 0 (0-10) | 0 (0-10) | 0 (0-10) | 75 | 95 |
| O=c1c(Cl)nsnc1Oc1cccc(C(F)(F)F)c1 [Compound 44, 3-chloro-5-[(3-trifluoromethyl)phenoxy]-4H--1,2,6-thiadiazin-4-one] | 4 (80-100) | 1 (10-40) | 0 (0-10) | 0 (0-10) | 90 | 0 |
